The target of one experiment is T1, CK1α (Homo sapiens, UniProt P48729+Q96SW2).
T1 construct: CSNK1A1-HiBit KI HEK293(LgBit) Cells; host or cells: HEK293(LgBit) knock-in cells
Briefly: HiBiT degradation assay, CK1α, Procedure A. In kind it is cell-based. In a few lines:
(§1)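 Cells in DMEM + 10% FBS were treated with compound in a ten-point dose response from 10 μM to 0.005 μM (0.1% DMSO) for six hours at 37° C. Lysis with Nano-Glo HiBiT detection reagent followed, with luminescence read. DC50 and Ymin came from a 4-parameter fit.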

The target of the next experiment is GSPT1 (Homo sapiens, UniProt P15170+Q96SW2). Briefly: HiBiT degradation assay, GSPT1, Procedure A. The experiment is classed as cell-based. More on the design: HiBit-GSPT1 KI HEK293(LgBit) Cells; host or cells: HEK293(LgBit) knock-in cells. In a few lines: as §1

Consider 21 compounds from patent publication US20240158370A1, “CK1 alpha AND DUAL CK1 alpha / GSPT1 DEGRADING COMPOUNDS” (Innovo Therapeutics, Inc., priority 2022, published 2024).

GSPT1, sequence (P15170 whole entry): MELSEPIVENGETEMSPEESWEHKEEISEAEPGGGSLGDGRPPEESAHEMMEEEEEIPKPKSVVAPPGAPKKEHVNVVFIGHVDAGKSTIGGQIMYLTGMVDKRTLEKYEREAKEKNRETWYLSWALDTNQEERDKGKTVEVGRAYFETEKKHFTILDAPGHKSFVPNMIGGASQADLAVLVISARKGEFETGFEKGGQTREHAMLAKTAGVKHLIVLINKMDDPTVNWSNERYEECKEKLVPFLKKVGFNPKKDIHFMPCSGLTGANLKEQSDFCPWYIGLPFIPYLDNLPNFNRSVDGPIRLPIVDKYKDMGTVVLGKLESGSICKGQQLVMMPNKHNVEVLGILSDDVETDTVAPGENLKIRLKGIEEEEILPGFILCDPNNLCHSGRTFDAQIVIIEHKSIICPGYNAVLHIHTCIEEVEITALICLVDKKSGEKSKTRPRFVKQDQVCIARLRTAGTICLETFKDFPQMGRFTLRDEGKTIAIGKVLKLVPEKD
GSPT1, sequence (Q96SW2 whole entry): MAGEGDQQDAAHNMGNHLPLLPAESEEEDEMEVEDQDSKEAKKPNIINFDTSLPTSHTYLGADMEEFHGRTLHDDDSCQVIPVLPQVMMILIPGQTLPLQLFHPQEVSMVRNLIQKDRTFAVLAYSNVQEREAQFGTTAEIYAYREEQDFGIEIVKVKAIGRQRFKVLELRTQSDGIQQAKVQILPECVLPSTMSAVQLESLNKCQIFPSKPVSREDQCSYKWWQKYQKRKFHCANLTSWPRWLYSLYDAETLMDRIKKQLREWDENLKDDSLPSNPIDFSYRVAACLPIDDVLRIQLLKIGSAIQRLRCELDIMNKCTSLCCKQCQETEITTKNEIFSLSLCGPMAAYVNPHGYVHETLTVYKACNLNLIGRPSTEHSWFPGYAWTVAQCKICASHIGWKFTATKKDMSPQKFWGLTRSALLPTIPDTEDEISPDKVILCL
GSPT1, sequence (Q16531 whole entry partner): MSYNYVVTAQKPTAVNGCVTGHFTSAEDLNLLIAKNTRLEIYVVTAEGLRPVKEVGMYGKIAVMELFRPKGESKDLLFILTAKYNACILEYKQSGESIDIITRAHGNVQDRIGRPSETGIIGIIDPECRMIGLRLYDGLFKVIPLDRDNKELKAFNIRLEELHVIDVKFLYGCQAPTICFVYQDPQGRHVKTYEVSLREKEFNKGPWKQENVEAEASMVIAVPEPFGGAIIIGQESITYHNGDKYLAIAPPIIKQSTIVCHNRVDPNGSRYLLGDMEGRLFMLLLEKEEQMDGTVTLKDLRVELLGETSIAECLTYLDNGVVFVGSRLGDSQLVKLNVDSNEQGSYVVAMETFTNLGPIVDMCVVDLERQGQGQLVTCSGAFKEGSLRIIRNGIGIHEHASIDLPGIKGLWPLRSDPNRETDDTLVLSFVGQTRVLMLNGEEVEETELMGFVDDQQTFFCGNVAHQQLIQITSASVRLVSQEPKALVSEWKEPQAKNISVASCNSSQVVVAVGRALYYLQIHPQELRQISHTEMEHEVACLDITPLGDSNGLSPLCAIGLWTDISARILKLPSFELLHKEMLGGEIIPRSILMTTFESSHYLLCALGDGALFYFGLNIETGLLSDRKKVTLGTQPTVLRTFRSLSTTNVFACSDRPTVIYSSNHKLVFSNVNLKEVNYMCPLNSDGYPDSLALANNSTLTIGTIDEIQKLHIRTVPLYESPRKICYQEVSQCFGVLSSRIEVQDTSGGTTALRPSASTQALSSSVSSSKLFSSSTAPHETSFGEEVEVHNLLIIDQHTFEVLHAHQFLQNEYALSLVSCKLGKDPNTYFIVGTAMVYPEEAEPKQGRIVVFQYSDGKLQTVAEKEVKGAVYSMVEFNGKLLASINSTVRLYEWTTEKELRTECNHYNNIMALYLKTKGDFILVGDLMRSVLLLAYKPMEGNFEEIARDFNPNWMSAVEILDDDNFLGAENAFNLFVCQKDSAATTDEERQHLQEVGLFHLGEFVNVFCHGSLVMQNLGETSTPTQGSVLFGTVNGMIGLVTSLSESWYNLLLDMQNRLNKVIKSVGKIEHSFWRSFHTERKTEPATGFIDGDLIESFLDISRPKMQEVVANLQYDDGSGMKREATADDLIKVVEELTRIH
T1 sequence (P48729 whole entry): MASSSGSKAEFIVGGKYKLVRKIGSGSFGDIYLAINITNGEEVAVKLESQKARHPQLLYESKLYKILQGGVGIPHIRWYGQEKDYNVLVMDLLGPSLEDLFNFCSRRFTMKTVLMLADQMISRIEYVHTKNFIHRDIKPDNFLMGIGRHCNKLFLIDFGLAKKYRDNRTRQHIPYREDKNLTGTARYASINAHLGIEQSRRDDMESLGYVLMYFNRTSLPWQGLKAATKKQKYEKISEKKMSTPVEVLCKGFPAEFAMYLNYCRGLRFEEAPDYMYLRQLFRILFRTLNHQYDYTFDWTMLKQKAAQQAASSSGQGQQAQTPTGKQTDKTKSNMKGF
T1 sequence (Q96SW2 whole entry): as the sequence (Q96SW2 whole entry) above
T1 sequence (Q16531 whole entry partner): as the sequence (Q16531 whole entry partner) above

For orientation: DC50 means the concentration giving 50% degradation. Read a low DC50 as degradation at low concentration. For `Cn1c(C2CC2)nc(-c2ccc3c(c2)CN(C2CCC(=O)NC2=O)C3=O)c1-c1cncnc1` (stereo not drawn) [Example 117, 3-(5-(2-cyclopropyl-1-methyl-5-(pyrimidin-5-yl)-1H-imidazol-4-yl)-1-oxoisoindolin-2-yl)piperidine-2,6-dione], on CK1α (six hours incubation), the “CK1α Ymin” value is on record as “C (C = 0-10% remaining)” and the DC50 was < 25 nM. At GSPT1 (six hours incubation), the DC50 was ≥ 25 nM and the “GSPT1 Ymin” value is “F (F = >75-100% remaining)”.
On the same counts, the results for `Cn1cnc(-c2ccc3c(c2)CN(C2CCC(=O)NC2=O)C3=O)c1-c1ccc(N2CCOCC2)cc1` (stereo not drawn) [Example 353] are “C (C = 0-10% remaining)”, < 25 nM, < 25 nM and “F (F = >75-100% remaining)”.
Consider `Cn1cc(-c2ccc3c(c2)CN(C2CCC(=O)NC2=O)C3=O)nc1-c1ccc(F)cc1` (stereo not drawn) [Example 556], for which, on CK1α (six hours), the “CK1α Ymin” value is “C (C = 0-10% remaining)” and the DC50 is < 25 nM. Also, at GSPT1 (six hours), the DC50 was ≥ 25 nM and the “GSPT1 Ymin” value is recorded as “F (F = >75-100% remaining)”.
As for `COc1ncccc1-c1c(-c2ccc3c(c2)CN(C2CCC(=O)NC2=O)C3=O)cnn1C` (stereo not drawn) [Example 377], on CK1α (six hours incubation), the “CK1α Ymin” value is given as “E (E = >25-75% remaining)” and the DC50 is < 25 nM. Moreover, on GSPT1 (six hours incubation), the DC50 was ≥ 25 nM and the “GSPT1 Ymin” value is reported as “F (F = >75-100% remaining)”.
For `COc1ccc(C)cc1-c1c(-c2ccc3c(c2)CN(C2CCC(=O)NC2=O)C3=O)ncn1C` (stereo not drawn) [Example 249], on CK1α (six hours incubation), the “CK1α Ymin” value is given as “D (D = >10- 25% remaining)” and the DC50 is < 25 nM. Also, on GSPT1 (six hours incubation), the DC50 is ≥ 25 nM and the “GSPT1 Ymin” value is reported as “F (F = >75-100% remaining)”.
Regarding `[2H]C([2H])([2H])n1ncc(-c2ccc3c(c2)CN(C2CCC(=O)NC2=O)C3=O)c1-c1ccc(OC(F)F)cc1` (stereo not drawn) [Example 436, 3-(5-(5-(4-(difluoromethoxy)phenyl)-1-(methyl-d3)-1H-pyrazol-4-yl)-1-oxoisoindolin-2-yl)piperidine-2,6-dione], on CK1α (six hours), the “CK1α Ymin” value is on record as “D (D = >10- 25% remaining)” and the DC50 is < 25 nM. In addition, at GSPT1 (six hours), the DC50 was ≥ 25 nM and the “GSPT1 Ymin” value is given as “F (F = >75-100% remaining)”.
With `Cn1cnc(-c2ccc3c(c2)CN(C2CCC(=O)NC2=O)C3=O)c1-c1ccc(CN2CCOCC2)cc1` (stereo not drawn) [Example 309], on CK1α (six hours incubation), the “CK1α Ymin” value is “D (D = >10- 25% remaining)” and the DC50 was < 25 nM. Moreover, on GSPT1 (six hours incubation), the half-maximal degradation concentration (DC50) is < 25 nM and the “GSPT1 Ymin” value is on record as “F (F = >75-100% remaining)”.
As for `Cn1cc(-c2ccc3c(c2)CN(C2CCC(=O)NC2=O)C3=O)nc1-c1ccc(C(F)F)cc1` (stereo not drawn) [Example 587], at CK1α (six hours), the “CK1α Ymin” value is on record as “C (C = 0-10% remaining)” and the DC50 was < 25 nM. In addition, on GSPT1 (six hours), the DC50 is ≥ 25 nM and the “GSPT1 Ymin” value is “F (F = >75-100% remaining)”.
For `Cn1cc(-c2ccc3c(c2)CN(C2CCC(=O)NC2=O)C3=O)nc1-c1ccc(C2CCCCC2)cc1` (stereo not drawn) [Example 582], in that order: “C (C = 0-10% remaining)”, < 25 nM, < 25 nM and “F (F = >75-100% remaining)”.
In the case of `Cn1cnc(-c2ccc3c(c2)CN(C2CCC(=O)NC2=O)C3=O)c1-c1cccc(C(C)(C)C)c1` (stereo not drawn) [Example 266], on CK1α (six hours incubation), the “CK1α Ymin” value was “E (E = >25-75% remaining)” and the DC50 was ≥ 25 nM. Besides, at GSPT1 (six hours incubation), the DC50 is < 25 nM and the “GSPT1 Ymin” value was “F (F = >75-100% remaining)”.
With `Cc1cc(-c2nc(-c3ccc4c(c3)CN(C3CCC(=O)NC3=O)C4=O)cn2C)ccc1F` (stereo not drawn) [Example 563], at CK1α (six hours), the “CK1α Ymin” value is recorded as “C (C = 0-10% remaining)” and the DC50 is < 25 nM. In addition, at GSPT1 (six hours), the DC50 was ≥ 25 nM and the “GSPT1 Ymin” value is given as “F (F = >75-100% remaining)”.
Take `Cn1cnc(-c2ccc3c(c2)CN(C2CCC(=O)NC2=O)C3=O)c1-c1ccc(C(=O)N2CCOCC2)cc1` (stereo not drawn) [Example 314]: on CK1α (six hours incubation), the “CK1α Ymin” value is given as “E (E = >25-75% remaining)” and the DC50 is ≥ 25 nM. Further, on GSPT1 (six hours incubation), the DC50 was ≥ 25 nM and the “GSPT1 Ymin” value is reported as “F (F = >75-100% remaining)”.
Regarding `Cc1n[nH]c(-c2ccccc2)c1-c1ccc2c(c1)CN(C1CCC(=O)NC1=O)C2=O` (stereo not drawn) [Example 30, 3-(5-(3-Methyl-5-phenyl-1H-pyrazol-4-yl)-1-oxoisoindolin-2-yl) piperidine-2,6-dione], at CK1α (six hours incubation), the “CK1α Ymin” value was “E (E = >25-75% remaining)” and the DC50 was ≥ 25 nM. Further, on GSPT1 (six hours incubation), the DC50 was ≥ 25 nM and the “GSPT1 Ymin” value is “F (F = >75-100% remaining)”.
As to `Cn1ccc(-c2c(-c3ccc4c(c3)CN(C3CCC(=O)NC3=O)C4=O)cnn2C)n1` (stereo not drawn) [Example 470], on CK1α (six hours), the “CK1α Ymin” value is “E (E = >25-75% remaining)” and the half-maximal degradation concentration (DC50) is ≥ 25 nM. Further, on GSPT1 (six hours), the DC50 was ≥ 25 nM and the “GSPT1 Ymin” value was “F (F = >75-100% remaining)”.
Turning to `Cn1ncc(-c2ccc3c(c2)CN(C2CCC(=O)NC2=O)C3=O)c1-c1ccc2[nH]ccc2c1` (stereo not drawn) [Example 218], at CK1α (six hours incubation), the “CK1α Ymin” value is listed as “D (D = >10- 25% remaining)” and the DC50 was ≥ 25 nM. Besides, on GSPT1 (six hours incubation), the DC50 is ≥ 25 nM and the “GSPT1 Ymin” value is recorded as “F (F = >75-100% remaining)”.
As to `COc1ccc(-c2c(-c3ccc4c(c3)CN(C3CCC(=O)NC3=O)C4=O)ncn2C)cc1OCc1ccccc1` (stereo not drawn) [Example 358], at CK1α (six hours incubation), the “CK1α Ymin” value is “E (E = >25-75% remaining)” and the DC50 is < 25 nM. Further, on GSPT1 (six hours incubation), the DC50 was ≥ 25 nM and the “GSPT1 Ymin” value is given as “F (F = >75-100% remaining)”.
`Cn1cc(-c2ccc3c(c2)CN(C2CCC(=O)NC2=O)C3=O)nc1C1OCCCO1` (stereo not drawn) [Example 415, 3-(5-(2-(1,3-dioxan-2-yl)-1-methyl-1H-imidazol-4-yl)-1-oxoisoindolin-2-yl) piperidine-2,6-dione]: on CK1α (six hours), the “CK1α Ymin” value is on record as “E (E = >25-75% remaining)” and the DC50 was < 25 nM. Also, at GSPT1 (six hours), the DC50 was ≥ 25 nM and the “GSPT1 Ymin” value is on record as “F (F = >75-100% remaining)”.
Consider `CC(C)n1cc(-c2c(-c3ccc4c(c3)CN(C3CCC(=O)NC3=O)C4=O)ncn2C)cn1` (stereo not drawn) [Example 330], for which, at CK1α (six hours incubation), the “CK1α Ymin” value is “E (E = >25-75% remaining)” and the DC50 is < 25 nM. Further, at GSPT1 (six hours incubation), the DC50 was ≥ 25 nM and the “GSPT1 Ymin” value was “F (F = >75-100% remaining)”.
As for `Cn1ncc(-c2ccc3c(c2)CN(C2CCC(=O)NC2=O)C3=O)c1-c1ccc(CO)cc1` (stereo not drawn) [Example 156], at CK1α (six hours incubation), the “CK1α Ymin” value is recorded as “D (D = >10- 25% remaining)” and the DC50 is ≥ 25 nM. At GSPT1 (six hours incubation), the DC50 is ≥ 25 nM and the “GSPT1 Ymin” value was “F (F = >75-100% remaining)”.
As for `Cc1cc(-c2c(-c3ccc4c(c3)CN(C3CCC(=O)NC3=O)C4=O)ncn2C)n(C)n1` (stereo not drawn) [Example 324], on CK1α (six hours incubation), the “CK1α Ymin” value is listed as “E (E = >25-75% remaining)” and the DC50 was ≥ 25 nM. Besides, on GSPT1 (six hours incubation), the DC50 is ≥ 25 nM and the “GSPT1 Ymin” value is on record as “F (F = >75-100% remaining)”.
`Cn1ncc(-c2ccc3c(c2)CN(C2CCC(=O)NC2=O)C3=O)c1-c1cnn(C2CCC2)c1` (stereo not drawn) [Example 475]: on CK1α (six hours), the “CK1α Ymin” value was “E (E = >25-75% remaining)” and the DC50 is ≥ 25 nM. For the same compound, on GSPT1 (six hours), the DC50 is < 25 nM and the “GSPT1 Ymin” value is “F (F = >75-100% remaining)”.
